# Biological target: T1, Drosophila MSRA (Drosophila melanogaster, UniProt P08761, C232S/C246S)
# T1 sequence (P08761 2-246 C232S/C246S): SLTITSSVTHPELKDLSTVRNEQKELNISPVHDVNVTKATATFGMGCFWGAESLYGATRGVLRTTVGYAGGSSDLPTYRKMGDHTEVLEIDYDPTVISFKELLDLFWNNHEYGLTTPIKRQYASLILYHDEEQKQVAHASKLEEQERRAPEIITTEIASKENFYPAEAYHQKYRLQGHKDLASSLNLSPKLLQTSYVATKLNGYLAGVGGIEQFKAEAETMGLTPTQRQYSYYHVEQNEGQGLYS
# Test: intact protein mass spectrometry after incubation with MetO
# Type: biochemical
# Settings: no dithiothreitol; oxidation of active site cysteine
smiles,measurement,value
"C[S+]([O-])CC[C@H](N)C(=O)O (stereo partly drawn) [MetO, L-Methionine Sulfoxide]",intact protein mass spectrometry after incubation with MetO,"when the C232S/C246S mutant was incubated with MetO, we observed that the mass"
